Reference: ChEMBL document CHEMBL1135289, “Anthranilate sulfonamide hydroxamate TACE inhibitors. Part 2: SAR of the acetylenic P1' group” (Bioorg Med Chem Lett, 2002)

How the values were obtained:
Collagenase 3 [1] = biological target: T1, Collagenase 3 (Homo sapiens, UniProt P45452); test: Inhibition of Matrix metalloprotease-13
[2] = biological target: Disintegrin and metalloproteinase domain-containing protein 17 (Homo sapiens, UniProt P78536); test: Inhibition of Tumor necrosis factor alpha converting enzyme
[3] = biological target: T2, Matrix metalloproteinase-9 (Homo sapiens, UniProt P14780); test: Inhibition of Matrix metalloprotease-9 activity
THP-1 [4] = test: Inhibition of LPS-stimulated TNF-alpha production in THP-1 cells at a concentration of 3 uM; type: functional; settings: Homo sapiens
Interstitial collagenase = biological target: T3, Interstitial collagenase (Homo sapiens, UniProt P03956); test: Inhibition of Matrix metalloprotease-1
T3 sequence (P03956 whole entry): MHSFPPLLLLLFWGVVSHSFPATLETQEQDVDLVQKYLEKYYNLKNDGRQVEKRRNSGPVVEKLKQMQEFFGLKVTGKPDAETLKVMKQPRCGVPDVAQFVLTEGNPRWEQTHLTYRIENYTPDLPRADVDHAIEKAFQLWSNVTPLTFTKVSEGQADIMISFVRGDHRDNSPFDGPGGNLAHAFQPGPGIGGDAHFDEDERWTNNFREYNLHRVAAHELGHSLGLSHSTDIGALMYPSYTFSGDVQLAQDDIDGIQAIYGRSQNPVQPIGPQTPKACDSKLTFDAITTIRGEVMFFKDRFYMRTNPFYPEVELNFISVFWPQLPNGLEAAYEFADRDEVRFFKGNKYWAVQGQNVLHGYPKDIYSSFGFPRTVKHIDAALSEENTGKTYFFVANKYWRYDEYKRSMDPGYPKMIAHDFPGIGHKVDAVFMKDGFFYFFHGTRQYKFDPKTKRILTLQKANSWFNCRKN

Collagenase 3 [5] = biological target: T1, Collagenase 3; test: Inhibition of Matrix metalloprotease-13 activity
[6] = biological target: T2, Matrix metalloproteinase-9; test: Inhibition of Matrix metalloprotease-9 at 10 uM
[7] = biological target: T4, Interstitial collagenase (Homo sapiens) (UniProt P03956); test: Inhibition of Matrix metalloprotease-1 at 10 uM
T4 sequence (whole entry): T3 sequence (P03956 whole entry)

THP-1 [8] = test: Compound was evaluated for its ability to inhibit LPS-stimulated TNF-alpha production in THP-1 cells at a concentration of 1 uM; type: functional; settings: Homo sapiens
THP-1 [9] = test: Compound was evaluated for its ability to inhibit […] production using THP-1 cellular assay at a concentration of 1 uM; type: functional; settings: Homo sapiens
Collagenase 3 [10] = biological target: T1, Collagenase 3; test: Inhibition of Matrix metalloprotease-13 at 1 uM
[11] = biological target: T2, Matrix metalloproteinase-9; test: Inhibition of Matrix metalloprotease-9 at 1 uM
Collagenase 3 [12] = biological target: T1, Collagenase 3; test: Inhibition of Matrix metalloprotease-13 at 10 uM

Disintegrin and metalloproteinase domain-containing protein 17, sequence (P78536 whole entry, the tested form may be a part): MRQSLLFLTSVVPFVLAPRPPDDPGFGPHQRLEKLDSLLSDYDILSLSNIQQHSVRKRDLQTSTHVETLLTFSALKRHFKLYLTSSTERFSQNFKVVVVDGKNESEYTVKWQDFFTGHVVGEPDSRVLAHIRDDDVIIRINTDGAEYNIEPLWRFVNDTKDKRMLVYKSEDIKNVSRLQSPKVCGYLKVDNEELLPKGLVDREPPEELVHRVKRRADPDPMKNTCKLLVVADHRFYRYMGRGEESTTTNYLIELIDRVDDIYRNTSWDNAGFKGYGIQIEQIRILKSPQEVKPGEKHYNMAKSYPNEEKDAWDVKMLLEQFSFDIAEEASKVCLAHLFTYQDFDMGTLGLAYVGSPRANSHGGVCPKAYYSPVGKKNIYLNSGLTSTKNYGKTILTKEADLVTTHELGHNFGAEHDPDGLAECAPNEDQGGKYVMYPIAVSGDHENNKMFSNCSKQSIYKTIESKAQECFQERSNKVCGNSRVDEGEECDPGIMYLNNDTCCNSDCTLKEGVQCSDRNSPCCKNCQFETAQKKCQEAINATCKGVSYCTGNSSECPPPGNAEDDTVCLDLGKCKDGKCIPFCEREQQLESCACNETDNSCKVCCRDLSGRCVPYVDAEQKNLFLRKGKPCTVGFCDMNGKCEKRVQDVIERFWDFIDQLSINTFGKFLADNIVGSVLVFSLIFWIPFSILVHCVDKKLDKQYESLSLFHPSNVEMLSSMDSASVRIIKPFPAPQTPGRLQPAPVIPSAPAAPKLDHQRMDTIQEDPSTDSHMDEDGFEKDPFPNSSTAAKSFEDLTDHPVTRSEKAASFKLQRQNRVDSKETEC
T2 sequence (P14780 whole entry): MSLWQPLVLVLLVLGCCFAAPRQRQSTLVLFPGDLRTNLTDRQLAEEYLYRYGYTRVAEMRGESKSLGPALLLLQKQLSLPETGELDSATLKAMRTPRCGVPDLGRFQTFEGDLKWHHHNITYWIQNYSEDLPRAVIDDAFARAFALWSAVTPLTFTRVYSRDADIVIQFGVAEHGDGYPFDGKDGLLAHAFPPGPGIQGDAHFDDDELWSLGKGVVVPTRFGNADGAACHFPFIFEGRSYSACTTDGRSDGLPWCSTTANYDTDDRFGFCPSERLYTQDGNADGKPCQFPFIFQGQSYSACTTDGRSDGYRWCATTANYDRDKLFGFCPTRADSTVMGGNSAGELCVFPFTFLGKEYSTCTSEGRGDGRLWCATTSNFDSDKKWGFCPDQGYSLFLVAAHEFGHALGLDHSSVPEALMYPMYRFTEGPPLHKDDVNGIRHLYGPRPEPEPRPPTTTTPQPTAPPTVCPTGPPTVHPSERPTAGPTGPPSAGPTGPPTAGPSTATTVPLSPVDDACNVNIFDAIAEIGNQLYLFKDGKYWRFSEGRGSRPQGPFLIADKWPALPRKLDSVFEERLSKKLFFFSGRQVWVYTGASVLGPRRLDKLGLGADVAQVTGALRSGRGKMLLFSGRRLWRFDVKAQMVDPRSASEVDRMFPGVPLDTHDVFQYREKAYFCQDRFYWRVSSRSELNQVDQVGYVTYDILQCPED

Row | inhibition [7] [%] | Structure (SMILES) | IC50 [2] [nM] | inhibition at 3 µM (THP-1 [4]) [%] | other results
1 |  | CC#CCOc1ccc(S(=O)(=O)N(C)c2c(C(=O)NO)cc(Br)cc2C2CCN(C)CC2)cc1 | 25 | 94 | IC50 (Collagenase 3 [1]): 252 nM; IC50 [3]: 166 nM
2 |  | CC#CCOc1ccc(S(=O)(=O)N(C)c2c(C(=O)NO)cc(-c3ccccc3)cc2C2CCN(C)CC2)cc1 | 42 | 95 | IC50 (Interstitial collagenase): 1920 nM; IC50 (Collagenase 3 [5]): 47 nM; IC50 [3]: 28 nM
3 | 35 | CC#CCOc1ccc(S(=O)(=O)N(C)c2ccccc2C(=O)NO)cc1 | 27 | 32 | inhibition [6]: 61%
4 | 21 | CCN(CC)CC#CCOc1ccc(S(=O)(=O)N(C)c2c(C)cc(Br)cc2C(=O)NO)cc1 |  |  | 
5 |  | CCCCOc1ccc(S(=O)(=O)N(C)c2c(C)cc(Br)cc2C(=O)NO)cc1 | 67 | 0 | 
6 |  | Cc1cc(Br)cc(C(=O)NO)c1N(C)S(=O)(=O)c1ccc(OCC#CCO)cc1 |  |  | inhibition at 1 µM (THP-1 [8]): 69%
7 | 85 | CC#CCOc1ccc(S(=O)(=O)N(C)c2c(C)cccc2C(=O)NO)cc1 | 28 | 55 | IC50 (Collagenase 3 [5]): 416 nM
8 | 26 | CNCC#CCOc1ccc(S(=O)(=O)N(C)c2c(C)cc(Br)cc2C(=O)NO)cc1 |  |  | 
9 |  | CC#CCOc1ccc(S(=O)(=O)N(C)c2c(C)cc(Br)cc2C(=O)NO)cc1 |  |  | inhibition at 1 µM (THP-1 [9]): 59%
10 | 32 | Cc1cc(Br)cc(C(=O)NO)c1N(C)S(=O)(=O)c1ccc(OCC#CCNCCCN(C)C)cc1 |  |  | 
11 |  | COc1ccc(S(=O)(=O)N(C)c2c(C(=O)NO)cc(Br)cc2C2CCN(C)CC2)cc1 | 26 | 42 | IC50 (Interstitial collagenase): 194 nM; IC50 (Collagenase 3 [5]): 5 nM; IC50 [3]: 2 nM
12 | 6 | CC#CCOc1ccc(S(=O)(=O)Nc2c(C)cccc2C(=O)NO)cc1 | 84 | 7 | inhibition (Collagenase 3 [12]): 42%

Row | Structure (SMILES) | inhibition [7] [%] | IC50 [2] [nM] | inhibition at 3 µM (THP-1 [4]) [%] | other results
13 | Cc1cc(Br)cc(C(=O)NO)c1N(C)S(=O)(=O)c1ccc(OCc2cccnc2)cc1 | 42 | 28 | 9 | inhibition (Collagenase 3 [10]): 48%; inhibition [11]: 28%
